Assay results from the kinase profiling compilation of Christmann-Franck et al. (2016).
“And” between values parts separate entries of the source, which are not always exact repeats. Identical values can stand only once.

How the values were obtained:
BRSK2 (human) = BRSK2 (human) (UniProt Q8IWQ3)
CAMKK2 (human) = CAMKK2 (human) (UniProt Q96RR4)
CSK (human) = CSK (human) (UniProt P41240)
CSNK1D (human) = CSNK1D (human) (UniProt P48730)
CSNK2A1 (human) = CSNK2A1 (human) (UniProt P68400)
EEF2K (human) = EEF2K (human) (UniProt O00418)
EPHA2 (human) = EPHA2 (human) (UniProt P29317)
Sequence of EPHA2 (human) (P29317 whole entry, looked up): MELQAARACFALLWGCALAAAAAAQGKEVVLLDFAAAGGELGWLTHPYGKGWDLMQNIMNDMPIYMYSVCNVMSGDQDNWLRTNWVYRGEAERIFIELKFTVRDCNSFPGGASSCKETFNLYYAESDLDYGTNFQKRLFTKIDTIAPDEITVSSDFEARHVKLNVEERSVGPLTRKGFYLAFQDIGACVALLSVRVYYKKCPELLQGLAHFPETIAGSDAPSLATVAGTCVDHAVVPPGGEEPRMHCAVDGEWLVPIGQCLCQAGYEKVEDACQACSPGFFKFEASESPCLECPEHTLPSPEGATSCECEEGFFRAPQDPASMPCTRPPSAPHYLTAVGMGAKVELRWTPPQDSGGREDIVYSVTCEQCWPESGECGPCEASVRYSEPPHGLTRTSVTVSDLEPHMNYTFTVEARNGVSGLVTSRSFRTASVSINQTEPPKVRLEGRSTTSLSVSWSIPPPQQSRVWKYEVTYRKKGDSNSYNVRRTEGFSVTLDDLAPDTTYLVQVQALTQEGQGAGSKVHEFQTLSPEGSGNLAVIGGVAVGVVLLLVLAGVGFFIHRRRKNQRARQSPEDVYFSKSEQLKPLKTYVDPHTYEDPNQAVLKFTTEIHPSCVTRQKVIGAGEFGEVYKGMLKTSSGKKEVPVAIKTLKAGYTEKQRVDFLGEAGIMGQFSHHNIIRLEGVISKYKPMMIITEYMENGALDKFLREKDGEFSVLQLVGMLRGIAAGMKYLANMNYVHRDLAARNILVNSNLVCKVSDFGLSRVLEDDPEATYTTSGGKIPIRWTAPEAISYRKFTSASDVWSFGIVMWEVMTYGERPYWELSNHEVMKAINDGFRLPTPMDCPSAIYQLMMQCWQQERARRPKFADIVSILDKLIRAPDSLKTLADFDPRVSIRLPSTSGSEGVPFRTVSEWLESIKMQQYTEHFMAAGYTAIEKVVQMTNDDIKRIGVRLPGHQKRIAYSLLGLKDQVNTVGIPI

FGFR1 (human) = FGFR1 (human) (UniProt P11362)
FLT1 (human) = FLT1 (human) (UniProt P17948)
IKBKE (human) = IKBKE (human) (UniProt Q14164)
LCK (mouse) = details: accession and sequence are those of the human protein
MAP2K1 (human) = MAP2K1 (human) (UniProt Q02750)
MAPK1 (human) = MAPK1 (human) (UniProt P28482)
MAPK11 (human) = MAPK11 (human) (UniProt Q15759)
MAPK15 (human) = MAPK15 (human) (UniProt Q8TD08)
MAPK8 (human) = MAPK8 (human) (UniProt P45983)
Sequence of MAPK8 (human) (P45983 whole entry, looked up): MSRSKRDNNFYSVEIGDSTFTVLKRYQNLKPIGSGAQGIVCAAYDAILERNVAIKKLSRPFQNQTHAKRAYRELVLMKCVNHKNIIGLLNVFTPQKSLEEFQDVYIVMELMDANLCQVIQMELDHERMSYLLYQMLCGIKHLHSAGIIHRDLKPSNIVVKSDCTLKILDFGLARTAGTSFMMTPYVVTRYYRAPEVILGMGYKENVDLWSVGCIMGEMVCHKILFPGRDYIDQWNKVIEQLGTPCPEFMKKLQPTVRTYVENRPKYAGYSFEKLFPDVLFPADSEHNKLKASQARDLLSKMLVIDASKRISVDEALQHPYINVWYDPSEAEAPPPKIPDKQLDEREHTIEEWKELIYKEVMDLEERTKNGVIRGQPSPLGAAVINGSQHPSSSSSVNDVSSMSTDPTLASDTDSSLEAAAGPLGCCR

MAPK9 (human) = MAPK9 (human) (UniProt P45984)
MAPKAPK2 (human) = MAPKAPK2 (human) (UniProt P49137)
Sequence of MAPKAPK2 (human) (P49137 whole entry, looked up): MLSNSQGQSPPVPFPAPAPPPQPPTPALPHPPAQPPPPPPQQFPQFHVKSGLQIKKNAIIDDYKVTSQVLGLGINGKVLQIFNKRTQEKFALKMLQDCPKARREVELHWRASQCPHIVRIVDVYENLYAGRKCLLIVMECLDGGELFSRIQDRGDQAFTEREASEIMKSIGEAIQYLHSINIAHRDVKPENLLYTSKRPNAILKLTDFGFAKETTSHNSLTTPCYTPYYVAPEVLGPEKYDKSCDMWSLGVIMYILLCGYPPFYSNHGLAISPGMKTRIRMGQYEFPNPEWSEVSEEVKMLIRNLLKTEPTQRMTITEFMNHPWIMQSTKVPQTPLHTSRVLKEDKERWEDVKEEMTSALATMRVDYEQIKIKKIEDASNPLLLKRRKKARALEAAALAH

MARK3 (human) = MARK3 (human) (UniProt P27448)
MKNK1 (human) = MKNK1 (human) (UniProt Q9BUB5)
PAK4 (human) = PAK4 (human) (UniProt O96013)
Sequence of PAK4 (human) (O96013 whole entry, looked up): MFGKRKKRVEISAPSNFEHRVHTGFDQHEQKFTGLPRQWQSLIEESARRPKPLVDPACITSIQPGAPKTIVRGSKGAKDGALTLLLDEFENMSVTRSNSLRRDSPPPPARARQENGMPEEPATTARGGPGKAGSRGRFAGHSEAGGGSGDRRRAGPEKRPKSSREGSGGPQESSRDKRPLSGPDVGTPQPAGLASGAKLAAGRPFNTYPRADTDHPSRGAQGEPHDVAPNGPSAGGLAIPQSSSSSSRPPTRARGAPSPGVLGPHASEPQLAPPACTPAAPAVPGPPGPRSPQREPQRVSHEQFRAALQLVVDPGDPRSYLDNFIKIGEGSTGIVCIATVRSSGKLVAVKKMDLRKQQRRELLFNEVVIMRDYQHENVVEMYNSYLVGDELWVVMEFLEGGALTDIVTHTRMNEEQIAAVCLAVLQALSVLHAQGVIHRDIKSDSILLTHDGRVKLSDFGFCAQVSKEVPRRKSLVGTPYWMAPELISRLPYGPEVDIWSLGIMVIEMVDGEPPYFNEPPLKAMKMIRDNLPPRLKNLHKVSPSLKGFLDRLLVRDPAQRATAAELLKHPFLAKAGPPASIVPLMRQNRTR

PAK6 (human) = PAK6 (human) (UniProt Q9NQU5)
PDPK1 (human) = PDPK1 (human) (UniProt O15530)
Sequence of PDPK1 (human) (O15530 whole entry, looked up): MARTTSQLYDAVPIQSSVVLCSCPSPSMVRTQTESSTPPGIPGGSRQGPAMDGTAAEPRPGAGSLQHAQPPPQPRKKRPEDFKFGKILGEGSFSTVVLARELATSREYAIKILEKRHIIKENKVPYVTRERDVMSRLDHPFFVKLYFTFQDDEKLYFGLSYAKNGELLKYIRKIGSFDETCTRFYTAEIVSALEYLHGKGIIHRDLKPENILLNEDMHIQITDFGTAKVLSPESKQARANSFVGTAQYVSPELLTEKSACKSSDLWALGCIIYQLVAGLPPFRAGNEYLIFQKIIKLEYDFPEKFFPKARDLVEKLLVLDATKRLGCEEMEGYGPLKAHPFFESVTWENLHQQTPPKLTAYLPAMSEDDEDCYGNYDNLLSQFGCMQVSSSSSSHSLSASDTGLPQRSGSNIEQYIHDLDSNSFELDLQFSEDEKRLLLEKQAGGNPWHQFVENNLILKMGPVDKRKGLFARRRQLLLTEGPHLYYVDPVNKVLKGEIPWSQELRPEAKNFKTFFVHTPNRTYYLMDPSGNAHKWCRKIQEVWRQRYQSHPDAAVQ

PHKG1 (human) = PHKG1 (human) (UniProt Q16816)
PIM1 (human) = PIM1 (human) (UniProt P11309)
Sequence of PIM1 (human) (P11309 whole entry, looked up): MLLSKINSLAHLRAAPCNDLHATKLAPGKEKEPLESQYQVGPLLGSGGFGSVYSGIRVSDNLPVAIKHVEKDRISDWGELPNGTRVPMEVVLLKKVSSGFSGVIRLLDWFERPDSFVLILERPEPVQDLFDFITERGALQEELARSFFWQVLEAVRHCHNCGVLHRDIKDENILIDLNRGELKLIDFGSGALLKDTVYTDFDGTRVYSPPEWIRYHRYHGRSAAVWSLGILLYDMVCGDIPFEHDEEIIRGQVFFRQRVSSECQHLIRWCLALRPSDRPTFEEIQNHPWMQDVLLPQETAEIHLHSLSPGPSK

PLK1 (human) = PLK1 (human) (UniProt P53350)
Sequence of PLK1 (human) (P53350 whole entry, looked up): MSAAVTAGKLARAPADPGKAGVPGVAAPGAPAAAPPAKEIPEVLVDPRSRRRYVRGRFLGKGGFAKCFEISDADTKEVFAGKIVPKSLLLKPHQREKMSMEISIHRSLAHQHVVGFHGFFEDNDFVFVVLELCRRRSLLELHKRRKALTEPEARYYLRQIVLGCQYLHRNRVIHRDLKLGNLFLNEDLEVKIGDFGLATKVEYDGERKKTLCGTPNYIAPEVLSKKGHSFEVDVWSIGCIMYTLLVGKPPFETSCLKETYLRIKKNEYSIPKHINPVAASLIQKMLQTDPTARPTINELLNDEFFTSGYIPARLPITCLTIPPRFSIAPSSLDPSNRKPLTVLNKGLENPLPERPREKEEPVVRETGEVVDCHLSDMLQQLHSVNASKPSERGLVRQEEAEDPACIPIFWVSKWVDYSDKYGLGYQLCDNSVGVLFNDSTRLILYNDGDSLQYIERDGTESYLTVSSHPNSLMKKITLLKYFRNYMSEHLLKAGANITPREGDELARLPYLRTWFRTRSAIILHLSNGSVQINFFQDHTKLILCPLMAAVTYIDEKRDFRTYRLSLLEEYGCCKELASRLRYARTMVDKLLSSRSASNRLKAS

PRKCA (human) = PRKCA (human) (UniProt P17252)
PRKCZ (human) = PRKCZ (human) (UniProt Q05513)
Sequence of PRKCZ (human) (Q05513 whole entry, looked up): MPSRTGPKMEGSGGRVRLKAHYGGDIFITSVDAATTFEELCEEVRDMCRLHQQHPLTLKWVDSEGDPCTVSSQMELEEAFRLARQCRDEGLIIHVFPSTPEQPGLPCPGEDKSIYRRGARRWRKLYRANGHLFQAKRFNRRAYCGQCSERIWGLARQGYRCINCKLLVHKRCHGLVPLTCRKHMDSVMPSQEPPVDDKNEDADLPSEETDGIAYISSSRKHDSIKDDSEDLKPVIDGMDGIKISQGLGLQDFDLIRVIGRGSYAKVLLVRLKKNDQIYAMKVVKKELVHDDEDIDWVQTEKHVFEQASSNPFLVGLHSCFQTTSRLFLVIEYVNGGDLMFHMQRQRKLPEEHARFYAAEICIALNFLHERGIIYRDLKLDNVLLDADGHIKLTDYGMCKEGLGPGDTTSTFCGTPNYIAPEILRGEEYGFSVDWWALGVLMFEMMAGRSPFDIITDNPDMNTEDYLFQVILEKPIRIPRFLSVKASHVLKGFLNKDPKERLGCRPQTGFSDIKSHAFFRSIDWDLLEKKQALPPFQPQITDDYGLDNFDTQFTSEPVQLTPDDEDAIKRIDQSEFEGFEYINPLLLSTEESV

ROCK2 (rat) = details: accession and sequence are those of the human protein
RPS6KA1 KD1 KD2 (human) = RPS6KA1 KD1 KD2 (human) (UniProt Q15418)
RPS6KA5 KD1 KD2 (human) = RPS6KA5 KD1 KD2 (human) (UniProt O75582)
[1] = tested on: RPS6KB1 (human), P23443 [T412E]
SRPK1 (human) = SRPK1 (human) (UniProt Q96SB4)
YES1 (human) = YES1 (human) (UniProt P07947)
Sequence of YES1 (human) (P07947 whole entry, looked up): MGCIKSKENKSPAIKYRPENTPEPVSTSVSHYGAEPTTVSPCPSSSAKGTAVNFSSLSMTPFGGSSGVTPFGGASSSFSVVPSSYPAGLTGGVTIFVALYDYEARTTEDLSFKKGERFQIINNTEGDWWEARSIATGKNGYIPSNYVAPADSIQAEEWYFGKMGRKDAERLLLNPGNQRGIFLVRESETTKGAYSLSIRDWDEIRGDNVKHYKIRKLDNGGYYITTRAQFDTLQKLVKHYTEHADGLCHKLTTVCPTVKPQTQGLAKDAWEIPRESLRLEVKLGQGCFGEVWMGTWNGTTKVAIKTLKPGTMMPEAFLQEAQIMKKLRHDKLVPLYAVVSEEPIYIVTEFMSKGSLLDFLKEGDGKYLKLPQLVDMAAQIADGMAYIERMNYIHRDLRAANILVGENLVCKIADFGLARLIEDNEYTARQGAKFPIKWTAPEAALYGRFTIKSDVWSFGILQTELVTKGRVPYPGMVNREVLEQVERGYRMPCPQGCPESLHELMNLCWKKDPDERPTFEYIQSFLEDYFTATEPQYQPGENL

With COc1ccc(-c2ccc3c(N4CCOCC4)nc(N4C[C@@H](C)O[C@@H](C)C4)nc3n2)cc1CO the per cent of control (BRSK2 (human); compound 1.0 µM) was 90%, the per cent of control (BRSK2 (human); compound 10.0 µM) was 72% and the per cent of control (CAMKK2 (human); compound 1.0 µM) was 108%. For the same molecule, the per cent of control (CAMKK2 (human); compound 10.0 µM) was 94%, the per cent of control (CSK (human); compound 1.0 µM) was 90% and the per cent of control (CSK (human); compound 10.0 µM) was 99%. For the same molecule, the per cent of control (CSNK1D (human); compound 1.0 µM) was 112%, the per cent of control (CSNK1D (human); compound 10.0 µM) was 109% and the per cent of control (CSNK2A1 (human); compound 1.0 µM) was 104%. It also gave a per cent of control (CSNK2A1 (human); compound 10.0 µM) of 85%, a per cent of control (EEF2K (human); compound 1.0 µM) of 88% and a per cent of control (EEF2K (human); compound 10.0 µM) of 108%. For the same molecule, the per cent of control (EPHA2 (human); compound 1.0 µM) was 108%, the per cent of control (EPHA2 (human); compound 10.0 µM) was 96% and the per cent of control (FGFR1 (human); compound 1.0 µM) was 102%. For the same molecule, the per cent of control (FGFR1 (human); compound 10.0 µM) was 87%, the per cent of control (FLT1 (human); compound 1.0 µM) was 92% and the per cent of control (FLT1 (human); compound 10.0 µM) was 92%. It also gave a per cent of control (IKBKE (human); compound 1.0 µM) of 99%, a per cent of control (IKBKE (human); compound 10.0 µM) of 100% and a per cent of control (LCK (mouse); compound 1.0 µM) of 69%. For the same molecule, the per cent of control (LCK (mouse); compound 10.0 µM) was 104%, the per cent of control (MAP2K1 (human); compound 1.0 µM) was 96% and the per cent of control (MAP2K1 (human); compound 10.0 µM) was 43%. For the same molecule, the per cent of control (MAPK1 (human); compound 1.0 µM) was 102%, the per cent of control (MAPK1 (human); compound 10.0 µM) was 92% and the per cent of control (MAPK11 (human); compound 1.0 µM) was 106%. The per cent of control (MAPK11 (human); compound 10.0 µM) was 83%, the per cent of control (MAPK15 (human); compound 1.0 µM) was 88% and the per cent of control (MAPK15 (human); compound 10.0 µM) was 92%. The per cent of control (MAPK8 (human); compound 1.0 µM) was 80%, the per cent of control (MAPK8 (human); compound 10.0 µM) was 93% and the per cent of control (MAPK9 (human); compound 1.0 µM) was 101%. It also gave a per cent of control (MAPK9 (human); compound 10.0 µM) of 103%, a per cent of control (MAPKAPK2 (human); compound 1.0 µM) of 98% and a per cent of control (MAPKAPK2 (human); compound 10.0 µM) of 81%. The per cent of control (MARK3 (human); compound 1.0 µM) was 93%, the per cent of control (MARK3 (human); compound 10.0 µM) was 93% and the per cent of control (MKNK1 (human); compound 1.0 µM) was 111%. It also gave a per cent of control (MKNK1 (human); compound 10.0 µM) of 75%, a per cent of control (PAK4 (human); compound 1.0 µM) of 11% and a per cent of control (PAK4 (human); compound 10.0 µM) of 75%. The per cent of control (PAK6 (human); compound 1.0 µM) was 75%, the per cent of control (PAK6 (human); compound 10.0 µM) was 100% and the per cent of control (PDPK1 (human); compound 1.0 µM) was 80% and 89%. For the same molecule, the per cent of control (PDPK1 (human); compound 10.0 µM) was 91% and 101%, the per cent of control (PHKG1 (human); compound 1.0 µM) was 89% and the per cent of control (PHKG1 (human); compound 10.0 µM) was 116%. The per cent of control (PIM1 (human); compound 1.0 µM) was 89%, the per cent of control (PIM1 (human); compound 10.0 µM) was 98% and the per cent of control (PLK1 (human); compound 1.0 µM) was 76%. For the same molecule, the per cent of control (PLK1 (human); compound 10.0 µM) was 94%, the per cent of control (PRKCA (human); compound 1.0 µM) was 106% and the per cent of control (PRKCA (human); compound 10.0 µM) was 86%. It also gave a per cent of control (PRKCZ (human); compound 1.0 µM) of 87%, a per cent of control (PRKCZ (human); compound 10.0 µM) of 84% and a per cent of control (ROCK2 (rat); compound 1.0 µM) of 75%. It also gave a per cent of control (ROCK2 (rat); compound 10.0 µM) of 86%, a per cent of control (RPS6KA1 KD1 KD2 (human); compound 1.0 µM) of 100% and a per cent of control (RPS6KA1 KD1 KD2 (human); compound 10.0 µM) of 86%. The per cent of control (RPS6KA5 KD1 KD2 (human); compound 1.0 µM) was 101%, the per cent of control (RPS6KA5 KD1 KD2 (human); compound 10.0 µM) was 117% and the per cent of control ([1]; compound 1.0 µM) was 104%. For the same molecule, the per cent of control ([1]; compound 10.0 µM) was 98%, the per cent of control (SRPK1 (human); compound 1.0 µM) was 101% and the per cent of control (SRPK1 (human); compound 10.0 µM) was 94%. For the same molecule, the per cent of control (YES1 (human); compound 1.0 µM) was 94% and the per cent of control (YES1 (human); compound 10.0 µM) was 90%.
